For data set [1], the system named is NS3 protease + Pep4A. The data set can be described thus: Automatic assay using a radioactive amide substrate with anionic exchanger capture. In kind it is biochemical, hepatitis C virus (HCV). The note with it: 3 hours at 23° C., 40 μM unlabeled peptide, 200 nM protease, 1 μM Pep4A.
Method: 400,000 cpm of the labelled peptide with a specific activity of 2-10 Ci/mmol. were incubated for 3 hours at 23° C. together with 40 μM (Km /2) of unlabeled peptide in the presence of 200 nM protease and 1 μM of Pep4A in 50 mM Tris pH 7.5, 50% glycerol, 3% CHAPS, 10 mM DTT. […] The fraction coming out of the exchanger is filtered, allowed to sediment or spun. The radioactivity is measured on the clear fraction, the amount of which is exclusively related to the right fragment (C-terminal), given that the amide substrate and the left hand fragment remain bound to the anionic exchanger. The addition of inhibitors causes a decrease in the release rate of the labelled cleaved fragment.
The subject of data set [2] is HCV NS3 protease. The note with it: Example 4 amide substrate. Here is the method: (§1) Cleavage was detected by separating the substrate from the hydrolysis products by reverse-phase HPLC. For this purpose the mixture containing the buffer and the peptide incubated with the protease was injected into a reverse-phase Lichrospher RP-18 column (Merck) and eluted with an acetonitrile gradient containing 0.10% trifluoracetic acid. The cleavage products were identified by co-injection of appropriate standards, and by mass spectrometry. For these experiments, proteins produced by one of the methods described in examples 1 and 2 were used.
(§2) Dependence of the activity on temperature was analysed by means of an Arrhenius plot in which the logarithm of the kinetic constant Kcat is given as an inverse function of temperature.

The test system of data set [3] is CSCC[C@H](NC(=O)[C@H](CO)NC(=O)[C@H](CS)NC(=O)[C@H](CS)NC(=O)[C@@H](NC(=O)[C@@H](NC(=O)[C@H](CC(=O)O)NC(=O)[C@H](CCC(=O)O)NC(C)=O)C(C)C)C(C)C)C(=O)N[C@@H](CO)C(=O)N[C@@H](Cc1ccc(O)cc1)C(=O)O. The data set can be described thus: HPLC assay of peptide substrate cleavage by purified NS3 protease in the presence of Pep4A. The format is biochemical, hepatitis C virus (HCV). The conditions noted are these: other: Table 2, stoichiometric concentration, pH 7.5, 25.0 °C. An excerpt:
(§3) As mentioned above, the protein NS4A is a cofactor of HCV protease. N and C-terminal deletion experiments have defined the peptide Pep4A with the sequence indicated in SEQ ID NO:6, as the minimum domain still capable of inducing optimal activation. In transfection or in vitro translation experiments the addition of polypeptides containing the minimum NS4A sequence is essential to give effective cleavage. […] The kinetic characteristics of this activation are described below. Using a titration experiment a stoichiometry of 1:1 was determined for this interaction at a concentration of […] of protease, indicating a Kd<300 nM.
(§4) These kinetics were obtained both in the absence and in the presence of stechiometric concentrations of Pep4A. […] When the Km values for the single substrates are compared it becomes evident that the presence of two negative charges in P5 and in P6 determined the bonding effectiveness of a peptide substrate.

Data set [4] concerns CC(=O)N[C@@H](CC(=O)O)C(=O)N[C@@H](CS)C(=O)N[C@@H](CO)C(=O)N[C@H](C(=O)N1CCC[C@H]1C(=O)N[C@@H](CS)C(=O)N[C@@H](CO)C(=O)NCC(=O)N[C@@H](CO)C(=O)N[C@@H](Cc1c[nH]c2ccccc12)C(=O)O)[C@@H](C)O. The data set is described as above. In kind it is biochemical, hepatitis C virus (HCV). The note with it: other: Table 2, stoichiometric concentration, pH 7.5, 25.0 °C.
Source text: as §3, §4

In data set [5] the test system is CSCC[C@H](NC(=O)[C@H](CCC(=O)O)NC(=O)[C@H](CC(=O)O)NC(C)=O)C(=O)N[C@@H](CCC(=O)O)C(=O)N[C@@H](CCC(=O)O)C(=O)N[C@@H](CS)C(=O)N[C@@H](C)C(=O)N[C@@H](CO)C(=O)N[C@@H](Cc1c[nH]cn1)C(=O)N[C@@H](CC(C)C)C(=O)O. Described as above. In kind it is biochemical, hepatitis C virus (HCV). The note with it: other: Table 2, stoichiometric concentration, pH 7.5, 25.0 °C.
Source text: as §3, §4

Data set [6] addresses T1, HCV NS3 protease (Hepatitis C virus genotype 1b, UniProt P26663).
T1 construct: The protein fragments contain variants of the protease domain of the HCV NS3 protein; added initiator Met (ATG start codon) (N); made in house
As to the kind of experiment: Competitive inhibition of NS3 protease by decapeptides P6-P4' modified at position P1. The format is biochemical. Here is the method:
as §1, §2

The target in data set [7] is T2, HCV protease (Hepatitis C virus genotype 1b, UniProt P26663).
T2 construct: added initiator Met (ATG start codon) (N); made in house; host or cells: E. coli BL21(DE3)
As to the kind of experiment: Effect of chymostatin on HCV protease activity. In kind it is biochemical. The conditions noted are these: 100 μg/ml used in homogenisation. Here is the method:
1. Homogenisation in the presence of 100 μg/ml of the chymostatin protease inhibitor. […] In this way it was possible to purify a single molecular species with more than 95% of form 2.

The target of data set [8] is T3, NS3 protease (Hepatitis C virus genotype 1b, UniProt P26663).
T3 construct: The protein fragments contain variants of the protease domain of the HCV NS3 protein; added initiator Met (ATG start codon) (N); made in house
The format is biochemical, hepatitis C virus (HCV). An excerpt:
Using the HPLC-based assay, the following kinetic parameters were obtained for the radioactive depsipeptide substrate S1 (SEQ ID NO:44):
Synthesis of the radioactive depsipeptide substrates allows set-up of a high-throughput assay for determination of NS3 protease activity as schematically illustrated in FIG. 11. The principle is the following: both the intact substrate and the N-terminal fragment that originates from enzyme cleavage (Ac-Asp-Glu-Met-Glu-Glu-Abu-OH) (SEQ ID NO:49) are extremely acid, whereas the C-terminal fragment [HO-CH(CH3)CO-Ser-His-Leu-Pro-Tyr-Lys(N^ε -[^3 H]-CH3 CO)-NH2 ] (SEQ ID NO:50) is, according to pH, neutral or basic. It is therefore possible to capture the two acidic species on an anionic exchange resin, leaving the C-terminal fragment in solution. If the C-terminal fragment contains a radioactive marker (in this case the tritiated acetate covalently bonded to the ε-amino group of the C-terminal lysine), the resin will be able to discriminate processed substrate from non-processed substrate, thus making it possible to quantify proteolytic activity by measuring the amount of radioactivity remaining in solution after incubation with the enzyme and treatment with the ion exchanger. […]
Purification to >98% homogeneity was achieved through preparative HPLC on a Nucleosyl C-18 column (250×21 mm, 7 μm) using as eluents (A) 50 mM ammonium acetate, pH 6 and (B) acetonitrile. […] The kinetic parameters for this substrate, evaluated through the HPLC-based assay (see FIG. 14A), were the following:
The buffer used for the assay is the following: 33 mM DTT, 50 mM Tris, pH 7, 50% glycerol, 2% CHAPS. […] The assay can be run in a cuvette or in a (96-well) microtitre plate, monitoring the fluorescence as a function of time (Excitation wavelength […], Emission wavelength […]). The increase in fluorescence upon substrate cleavage is 13-fold. […]

The mark [9] stands for this setting: radioactive depsipeptide substrates, HPLC-based assay.

Non-standard residues stand in square brackets, D forms with d. Residues, ends and D or L forms follow the SMILES beside them. No end group written: not given here. *: point of attachment. Dabcyl = CN(C)c1ccc(N=Nc2ccc(C(=O)*)cc2)cc1; EDANS = O=S(=O)(O)c1cccc2c(NCCN*)cccc12; AllylGly = C=CC[C@H](N)C(=O)O; Abu = CC[C@H](N)C(=O)O; Lac = C[C@H](O)C(=O)O

T1 sequence (P26663 1027-1208): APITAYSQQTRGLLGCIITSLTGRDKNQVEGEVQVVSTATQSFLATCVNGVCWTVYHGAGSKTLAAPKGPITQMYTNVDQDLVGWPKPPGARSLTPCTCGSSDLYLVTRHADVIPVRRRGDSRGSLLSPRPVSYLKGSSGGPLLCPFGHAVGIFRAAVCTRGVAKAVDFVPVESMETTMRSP
T3 sequence (P26663 1027-1208): as above
HCV NS3 protease, sequence (P26663 1039-1206 limits assumed): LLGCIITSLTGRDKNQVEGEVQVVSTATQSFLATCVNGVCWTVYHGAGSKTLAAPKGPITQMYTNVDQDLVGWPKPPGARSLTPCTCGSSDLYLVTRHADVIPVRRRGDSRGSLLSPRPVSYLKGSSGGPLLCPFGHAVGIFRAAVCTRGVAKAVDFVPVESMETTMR
NS3 protease + Pep4A, sequence (P26663 1039-1206, other chains not shown): as the sequence (P26663 1039-1206 limits assumed) above
T2 sequence (P26663 1027-1206): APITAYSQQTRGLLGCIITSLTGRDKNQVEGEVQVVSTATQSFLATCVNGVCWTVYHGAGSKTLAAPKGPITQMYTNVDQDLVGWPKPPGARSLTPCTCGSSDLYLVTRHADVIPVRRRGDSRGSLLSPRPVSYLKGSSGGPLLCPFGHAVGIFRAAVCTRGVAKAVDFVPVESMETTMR

For orientation: Km means the concentration of substrate that gives half-maximal velocity. As usually defined, the kcat is the number of substrate molecules converted per active site and unit of time at saturation. Take “Ac-Asp-Glu-Met-Glu-Glu-Cys-Ala-Ser-His-Leu-Pro-Tyr-Lys-ε-(^3 H)Ac (XEMEECASHLPYX; N-acetyl; tritiated epsilon-acetyl) [SEQ ID NO:47]”: the peptide substrate cleaved in data set [1] was found to be 20%. In addition, in data set [2], the Km stood at 79 µM, the turnover number (kcat) turned out to be 0.00817 s⁻¹ and the “kcat /Km” value turned out to be 103 M⁻¹ s⁻¹.

By kcat/Km is commonly meant the second-order rate constant that governs catalysis at low substrate concentration. On to “HCV NS3 protease + Pep4A (NS4A cofactor peptide) (Hepatitis C virus (isolate BK))”, for which, in data set [3], the Km stood at 380 µM, the kcat stood at 0.25 s⁻¹ and the specificity constant (kcat/Km) is 650 M⁻¹ s⁻¹. In data set [4], the Km is 320 µM. Also, in data set [5], the Michaelis-Menten constant (Km) was determined as 43 µM, the kcat came to 0.0233 s⁻¹ and the specificity constant (kcat/Km) was 540 M⁻¹ s⁻¹.

As usually defined, the Ki is the dissociation constant of the complex between target and ligand, obtained from inhibition or displacement. Low readings indicate higher affinity, high ones lower affinity. On to `CC[C@H](NC(=O)[C@H](CCC(=O)O)NC(=O)[C@H](CCC(=O)O)NC(=O)[C@H](CCSC)NC(=O)[C@H](CCC(=O)O)NC(=O)[C@H](CC(=O)O)NC(C)=O)C(=O)N[C@@H](C)C(=O)N[C@@H](CO)C(=O)N[C@@H](Cc1c[nH]cn1)C(=O)N[C@@H](CC(C)C)C(=O)O` [Abu] (Ac-DEMEE[Abu]ASHL-OH), for which the affinity in data set [6] corresponds to a Ki of 175 µM.

With `C=CC[C@H](NC(=O)[C@H](CCC(=O)O)NC(=O)[C@H](CCC(=O)O)NC(=O)[C@H](CCSC)NC(=O)[C@H](CCC(=O)O)NC(=O)[C@H](CC(=O)O)NC(C)=O)C(=O)N[C@@H](C)C(=O)N[C@@H](CO)C(=O)N[C@@H](Cc1c[nH]cn1)C(=O)N[C@@H](CC(C)C)C(=O)O` [Alg] (Ac-DEMEE[AllylGly]ASHL-OH), the inhibition constant Ki in data set [6] amounted to 165 µM.

As to `CC(C)C[C@H](NC(=O)[C@@H](NC(=O)N[C@@H](Cc1ccccc1)C(=O)O)[C@@H]1CCN=C(N)N1)C(=O)N[C@H](C=O)Cc1ccccc1` [chymostatin], in data set [7], the “inhibition of HCV protease activity” value was “does not inhibit”.

Take `CC[C@H](NC(=O)[C@H](CCC(=O)O)NC(=O)[C@H](CCC(=O)O)NC(=O)[C@H](CC(=O)NCCNc1cccc2c(S(=O)(=O)O)cccc12)NC(=O)[C@H](CCC(=O)O)NC(=O)[C@H](CC(=O)O)NC(C)=O)C(=O)O[C@@H](C)C(=O)N[C@@H](CO)C(=O)N[C@@H](CCCCNC(=O)c1ccc(N=Nc2ccc(N(C)C)cc2)cc1)C(N)=O` [S3, Ac-Asp-Glu-Asp-(EDANS)-Glu-Glu-Abu-.psi.[COO)-Ala-Ser-Lys-(DABCYL)NH2] (Ac-DED(EDANS)EE[Abu][Lac]SK(Dabcyl)-NH2): the “kcat /Km” value in data set [8] (fluorogenic depsipeptide, same buffer) was determined as 5342 M⁻¹ s⁻¹.

Molecule Ac-DEMEETASHL [Thr] showed a Ki in data set [6] of 215 µM.

With “Ac-Asp-Glu-Met-Glu-Glu-Abu-.psi.-[COO]-Ala-Ser-His-Leu-Pro-Tyr-Lys(N^ ε -[^3 H]-CH3 CO)-NH2 [SEQ ID NO:44]”, in data set [8] (setting [9]), the Michaelis constant (Km) amounted to 11 µM and the kcat worked out at 0.15 s⁻¹.

For the molecule Ac-DEMEEAASHL [Ala], affinity in data set [6] was put at a Ki of 173 µM.

In turn, Ac-DEMEEVASHL [Val] had a Ki in data set [6] of 173 µM.

The values above are taken from patent publication US6197536A, “Methodology to produce, and purify and assay polypeptides with the proteolytic activity of the HCV NS3 protease” (priority 1995, dated 2001).
